Assay results reported in patent publication US7138414B2, “Heterocyclically substituted benzoylureas, process for their preparation and their use as pharmaceuticals” (Sanofi-Aventis Deutschland GmbH, priority 2002, dated 2006).

What follows are compounds tested against T1, human glycogen phosphorylase a (Homo sapiens, UniProt P06737) (assay: Glycogen phosphorylase a activity test (reverse direction, release of inorganic phosphate)). Details: 10 μM test substance; duplicate determinations; 40 min at room temperature.
T1 sequence (P06737 2-847 limits assumed): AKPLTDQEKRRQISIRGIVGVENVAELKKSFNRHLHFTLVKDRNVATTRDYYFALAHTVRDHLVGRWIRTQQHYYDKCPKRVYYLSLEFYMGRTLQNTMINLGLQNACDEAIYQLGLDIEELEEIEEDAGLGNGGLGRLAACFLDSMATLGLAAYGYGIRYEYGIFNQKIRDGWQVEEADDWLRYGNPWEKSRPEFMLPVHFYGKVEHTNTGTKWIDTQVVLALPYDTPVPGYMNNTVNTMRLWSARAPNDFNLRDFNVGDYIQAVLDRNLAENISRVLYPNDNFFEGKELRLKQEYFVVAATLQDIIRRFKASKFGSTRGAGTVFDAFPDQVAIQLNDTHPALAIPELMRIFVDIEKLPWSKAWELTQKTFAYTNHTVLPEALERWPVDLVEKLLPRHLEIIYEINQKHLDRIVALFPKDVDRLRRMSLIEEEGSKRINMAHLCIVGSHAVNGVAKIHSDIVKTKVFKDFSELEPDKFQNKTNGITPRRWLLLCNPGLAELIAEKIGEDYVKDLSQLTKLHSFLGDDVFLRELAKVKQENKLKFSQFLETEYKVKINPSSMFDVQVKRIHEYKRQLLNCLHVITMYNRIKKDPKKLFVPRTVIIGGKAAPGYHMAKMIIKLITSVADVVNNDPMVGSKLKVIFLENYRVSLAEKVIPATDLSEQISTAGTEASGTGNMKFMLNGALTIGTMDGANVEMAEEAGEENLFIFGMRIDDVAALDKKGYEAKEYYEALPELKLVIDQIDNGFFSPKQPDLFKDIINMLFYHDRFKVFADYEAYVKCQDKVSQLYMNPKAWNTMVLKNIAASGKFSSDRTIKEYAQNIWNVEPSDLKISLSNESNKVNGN
Format: biochemical
Experimental: Glycogen Phophorylase a Activity Test
All reactions were carried out as duplicate determinations in 96-well microtiter plates (half area plates, Costar No. 3696), and the change in absorption as a consequence of the formation of the reaction product was measured at the wavelength specified below in a Multiskan Ascent Elisa Reader (Lab Systems, Finland).
In order to measure the GPa enzyme activity in the reverse direction, the conversion of glucose 1-phosphate to glycogen and inorganic phosphate was measured by the general method of Engers et al. (Engers H D, Shechosky S, Madsen N B, Can J Biochem 1970 July;48(7):746–754) with the following modifications: human glycogen phosphorylase a (for example containing 0.76 mg of protein/ml (Aventis Pharma Deutschland GmbH), dissolved in buffer solution E (25 mM β-glycerophosphate, pH 7.0, 1 mM EDTA and 1 mM dithiothreitol) was diluted to a concentration of 10 μg of protein/ml with buffer T (50 mM Hepes, pH 7.0, 100 mM KCl, 2.5 mM EDTA, 2.5 mM MgCl26H2O) and addition of 5 mg/ml of glycogen. Test substances were prepared as a 10 mM solution in DMSO and diluted to 50 μM with buffer solution T. To 10 μl of this solution were added 10 μl of 37.5 mM glucose dissolved in buffer solution T and 5 mg/ml of glycogen, and also 10 μl of a solution of human glycogen phosphorylase a (10 μg of protein/ml) and 20 μl of 2.5 mM glucose 1-phosphate. The base value of the activity of glycogen phosphorylase a in the absence of test substance was determined by adding 10 μl of buffer solution T (0.1% DMSO). The mixture was incubated at room temperature for 40 minutes and the released inorganic phosphate was determined by means of the general method of Drueckes et al. (al (Drueckes P, Schinzel R, Palm D, Anal Biochem 1995 Sep. 1;230(1):173–177) with the following modifications: 50 μl of a stop solution of 7.3 mM of ammonium molybdate, 10.9 mM of zinc acetate, 3.6% of ascorbic acid, 0.9% of SDS are added to 50 μl of the enzyme mixture. After 60 minutes of incubation at 45° C., the absorption was measured at 820 nm. To determine the background absorption, the stop solution was added immediately after the addition of the glucose 1-phosphate solution in a separate reaction. This test was carried out at a concentration of 10 μM of the test substance, in order to determine the respective inhibition of glycogen phosphorylase a by the test substance in vitro.

| % inhibition at 10 μM [%] | Compound |
| --- | --- |
| 94 | O=C(NC(=O)c1cc(F)c(F)cc1Cl)Nc1ccc(-n2cncn2)cc1F [Example 1c, 1-(2-chloro-4,5-difluorobenzoyl)-3-(2-fluoro-4-[1,2,4]triazol-1-ylphenyl)urea] |
| 94 | COc1cc(-c2nnc(C)[nH]2)ccc1NC(=O)NC(=O)c1ccc(F)cc1Cl [Example 2c, 1-(2-chloro-4-fluorobenzoyl)-3-[2-methoxy-4-(5-methyl-4H-[1,2,4]triazol-3-yl)-phenyl]urea] |
| 100 | COc1cc(-c2nnc(C)[nH]2)ccc1NC(=O)NC(=O)c1cc(F)c(F)cc1Cl [Example 3, 1-(2-chloro-4,5-difluorobenzoyl)-3-[2-methoxy-4-(5-methyl-4H-[1,2,4]triazol-3-yl)-phenyl]urea] |
| 90 | COc1cc(-c2nnc(CC(=O)O)[nH]2)ccc1NC(=O)NC(=O)c1ccc(F)cc1Cl [Example 4d, (5-(4-(3-(2-chloro-4-fluorobenzoyl)ureido)-3-methoxyphenyl)-4H-[1,2,4]triazol-3-yl)acetic acid] |
| 9 | Cc1nnc(-c2ccccc2NC(=O)NC(=O)c2cc(F)c(F)cc2Cl)n1-c1ccccc1C(=O)O [Example 5e, 2-(3-{2-[3-(2-chloro-4,5-difluorobenzoyl)ureido]phenyl}-5-methyl-[1,2,4]triazol-4-yl)benzoic acid] |
| 100 | Cc1nnc(-c2ccc(Cl)c(NC(=O)NC(=O)c3cc(F)c(F)cc3Cl)c2)[nH]1 [Example 6d, 1-(2-chloro-4,5-difluorobenzoyl)-3-[2-chloro-5-(5-methyl-4H-[1,2,4]triazol-3-yl)phenyl]urea] |
| 100 | O=C(NC(=O)c1cc(F)c(F)cc1Cl)Nc1cc(-c2nnc[nH]2)ccc1Cl [Example 6e, 1-(2-chloro-4,5-difluorobenzoyl)-3-[2-chloro-5-(4H-[1,2,4]triazol-3-yl)phenyl]urea] |
| 100 | O=C(NC(=O)c1ccc(F)cc1Cl)Nc1ccc(-c2nnn[nH]2)cc1Cl [Example 7c, 1-(2-chloro-4-fluorobenzoyl)-3-[2-chloro-4-(1H-tetrazol-5-yl)phenyl]urea] |
| 100 | O=C(NC(=O)c1cc(F)c(F)cc1Cl)Nc1ccc(-c2nnn[nH]2)cc1Cl [Example 7d, 1-(2-chloro-4,5-difluorobenzoyl)-3-[2-chloro-4-(1H-tetrazol-5-yl)phenyl)urea] |
| 100 | O=C(NC(=O)c1ccc(F)cc1Cl)Nc1ccc(-c2nnn[nH]2)cc1OC(F)(F)F [Example 7e, 1-(2-chloro-4-fluorobenzoyl)-3-[4-(1H-tetrazol-5-yl)-2-trifluoromethoxyphenyl]-urea] |
| 100 | O=C(NC(=O)c1cc(F)c(F)cc1Cl)Nc1ccc(-c2nnn[nH]2)cc1OC(F)(F)F [Example 7f] |
| 96 | COc1cc(-c2nnc(O)o2)ccc1NC(=O)NC(=O)c1ccc(F)cc1Cl [Example 8c, 1-(2-chloro-4-fluorobenzoyl)-3-[4-(5-hydroxy-[1,3,4]oxadiazol-2-yl)-2-methoxyphenyl]urea] |
| 20 | COc1nn(-c2ccc(NC(=O)NC(=O)c3ccc(F)cc3Cl)c(OC)c2)c(=O)o1 [Example 9e, 1-(2-chloro-4-fluorobenzoyl)-3-(2-methoxy-4-(5-methoxy-2-oxo-3H-[1,3,4]-oxadiazol-3-yl)phenyl)urea] |
| 79 | Cc1nnc(-c2ccc(NC(=O)NC(=O)c3ccc(F)cc3Cl)c(Cl)c2)o1 [Example 9g, 1-(2-chloro-4-fluorobenzoyl)-3-[2-chloro-4-(5-methyl-[1,3,4]oxadiazol-2-yl)phenyl]urea] |
| 100 | Nc1nnc(-c2ccccc2NC(=O)NC(=O)c2cc(F)c(F)cc2Cl)o1 [Example 10c, 1-[2-(5-amino-[1,3,4]oxadiazol-2-yl)phenyl]-3-(2-chloro-4,5-difluorobenzoyl)urea] |
| 100 | O=C(NC(=O)c1cc(F)c(F)cc1Cl)Nc1ccc(-c2noc(=O)[nH]2)cc1OC(F)(F)F [Example 11d, 1-(2-chloro-4,5-difluorobenzoyl)-3-[4-(5-oxo-4,5-dihydro-[1,2,4]oxadiazol-3-yl)-2-trifluoromethoxyphenyl]urea] |
| 85 | Cc1cc(=O)n(-c2ccc(NC(=O)NC(=O)c3ccc(F)cc3Cl)c(C)c2)[nH]1 [Example 12c, 1-(2-chloro-4-fluorobenzoyl)-3-[2-methyl-4-(3-methyl-5-oxo-2,5-dihydropyrazol-1-yl)phenyl]urea] |

| % inhibition at 10 μM [%] | Compound |
| --- | --- |
| 48 | O=C(NC(=O)c1cc(F)c(F)cc1Cl)Nc1ccccc1-c1nc2ccccc2[nH]1 [Example 13a, 1-[2-(1H-benzoimidazol-2-yl)phenyl]-3-(2-chloro-4,5-difluorobenzoyl)urea] |
| 97 | Cc1nnc(-c2ccc(Cl)c(NC(=O)NC(=O)c3cc(F)c(F)cc3Cl)c2)[nH]c1=O [Example 14e, 1-(2-chloro-4,5-difluorobenzoyl)-3-[2-chloro-5-(6-methyl-5-oxo-4,5-dihydro-[1,2,4]triazin-3-yl)phenyl]urea] |
| 100 | Cc1nnc(-c2ccc(Cl)c(NC(=O)NC(=O)c3cc(F)c(F)cc3Cl)c2)nc1C [Example 14f, 1-(2-chloro-4,5-difluorobenzoyl)-3-[2-chloro-5-(5,6-dimethyl-[1,2,4]triazin-3-yl)phenyl]urea] |
| 1.0 | NC(=O)C1CCCN(c2ccc(F)cc2NC(=O)NC(=O)c2ccc(F)cc2Cl)C1 (stereo not shown) [Example 19] |
| 0.04 | O=C(NC(=O)c1ccc(F)cc1Cl)Nc1cc(F)ccc1N1CCC(C(=O)O)CC1 [Example 20] |
| 0.3 | CS(=O)(=O)c1ccc(N2CCCC(C(=O)O)C2)c(NC(=O)NC(=O)c2cc(F)c(F)cc2Cl)c1 (stereo not shown) [Example 21] |
| 1.1 | CS(=O)(=O)c1ccc(N2CCCC(C(=O)O)C2)c(NC(=O)NC(=O)c2ccc(F)cc2Cl)c1 (stereo not shown) [Example 22] |
| 0.03 | O=C(NC(=O)c1cc(F)c(F)cc1Cl)Nc1cc(C(F)(F)F)ccc1N1CCCC(C(=O)O)C1 (stereo not shown) [Example 23] |
| 0.09 | O=C(NC(=O)c1ccc(F)cc1Cl)Nc1cc(C(F)(F)F)ccc1N1CCCC(C(=O)O)C1 (stereo not shown) [Example 24] |
| 0.06 | Cc1ccc(NC(=O)NC(=O)c2ccc(F)cc2Cl)c(N2CCCC(C(=O)O)C2)c1 (stereo not shown) [Example 25] |
| 0.04 | Cc1ccc(NC(=O)NC(=O)c2cc(F)c(F)cc2Cl)c(N2CCCC(C(=O)O)C2)c1 (stereo not shown) [Example 26] |
| 0.04 | Cc1ccc(N2CCCC(C(=O)O)C2)c(NC(=O)NC(=O)c2ccc(F)cc2Cl)c1 (stereo not shown) [Example 28] |
| 0.03 | O=C(NC(=O)c1ccc(F)cc1Cl)Nc1cc(Cl)ccc1N1CCCC(C(=O)O)C1 (stereo not shown) [Example 32] |
| 1.0 | COC(=O)c1ccc(N2CCCC(C(=O)O)C2)c(NC(=O)NC(=O)c2cc(F)c(F)cc2Cl)c1 (stereo not shown) [Example 33] |
| 3.2 | COC(=O)c1ccc(N2CCCC(C(=O)O)C2)c(NC(=O)NC(=O)c2ccc(F)cc2Cl)c1 (stereo not shown) [Example 34] |
| 0.3 | CCOC(=O)C1CCCN(c2ccc(F)cc2NC(=O)NC(=O)c2cc(F)c(F)cc2Cl)C1 (stereo not shown) [Example 35] |
| 0.3 | CCOC(=O)C1CCCN(c2ccc(F)cc2NC(=O)NC(=O)c2ccc(F)cc2Cl)C1 (stereo not shown) [Example 36] |
